Assay results taken from PMC3742835, “Powerful Inhibition of Experimental Human Pancreatic Cancers by Receptor Targeted Cytotoxic LH-RH analog AEZS-108” (Oncotarget, 2013).

What was measured:
Panc-1 cancers [1] = test: Experiment 1: Panc-1 tumor growth in nude mice; type: in vivo, human (xenograft in nude mice); conditions: AN-152 6.9 μmol/kg, DOX 2.5 μmol/kg
Method: (§1) Control and treatment groups were then selected at random.
(§2) In Experiment 1, nude mice with Panc-1 tumors were treated iv. on days 1, 8. […] There were 8 animals in each group. The experiment was terminated on day 82.

CFPAC-1 cancers [2] = test: Human Apoptosis RT Profiler PCR Array, CFPAC-1; type: in vivo, human (xenograft in nude mice)
Source text: (§3) After isolating total RNA and protein from tumor samples from experiments 2, 3 and 4 by using the NucleoSpin kit (Macherey-Nagel, Bethlehem, PA, USA), the Human Cancer Pathway Finder Superarray and the Human Apoptosis RT Profiler PCR Array (Qiagen Inc. Valencia, CA, USA) were used to analyze 3 representative samples from each group for mRNA levels of genes related to cell adhesion, apoptosis, cell cycle, angiogenesis, signal transduction, invasion and metastasis. Quality control of RNA samples, synthesis of cDNA and RT-PCR arrays were performed as described. Gene expression data were examined using Excel based PCR Array Data Analysis Software provided by Qiagen; fold-changes in gene expression were calculated using the ΔΔCt method and five housekeeping genes (B2M, HPRT1, RPL13A, GAPDH, and ACTB) were used for normalization of the results.

[3] = system: three tumor lines (Panc-1, SW-1990, CFPAC-1); test: Human Cancer Pathway Finder PCR Array, three tumor lines together; type: in vivo, human (xenograft in nude mice)
Source text: as §3

CFPAC-1 cancers [4] = test: Experiment 3: CFPAC-1 tumor growth in nude mice
Method: Chemicals, unless stated otherwise, were purchased from Sigma (St. Louis, MO).
Female athymic nude mice (Ncr nu/nu) were obtained from the National Cancer Institute (Frederick Cancer Research and Development Center, Frederick, MD), Charles River Laboratories International, Inc. (Durham, NC) and Harlan Laboratories (Tampa, FL) and maintained under pathogen-limited conditions. […] To produce tumor donor animals, 10^6 cells of each line were injected subcutaneously into 3 nude mice and grown until well-developed tumors were grown. The resulting tumors were removed, minced and 2 mm^3 pieces of tumor tissue were transplanted subcutaneously into each flank area of the experimental nude mice. When the tumors became measurable, the mice were divided into groups with nearly equal average tumor sizes. Control and treatment groups were then selected at random.
The compounds were given iv. on days 1, 5, 8, 12, 15 and 30. There were 8 animals per group, and the experiment lasted to the 61st day of the treatment period.
One-way ANOVA (Sigmaplot-11 software; Jandel Scientific, San Raphael, CA) was used for statistical evaluation of the data, and the groups were compared using Dunnett's method.

SW-1990 tumors [5] = test: Human Cancer Pathway Finder PCR Array, SW-1990 tumors; type: in vivo, human (xenograft in nude mice)
Source text: as §3

[6] = Experiment 3: body and organ weights of mice; type: in vivo; conditions: Experiment 3, nude mice with CFPAC-1; iv
Source text: as §1

Panc-1 cancers [7] = test: Human Apoptosis RT Profiler PCR Array, Panc-1; type: in vivo, human (xenograft in nude mice)
Source text: as §3

CFPAC-1 cancers [8] = test: Human Cancer Pathway Finder PCR Array, CFPAC-1 tumors; type: in vivo, human (xenograft in nude mice)
Source text: as §3

[9] = Experiment 1: body and organ weights of mice; type: in vivo; conditions: Experiment 1, nude mice with Panc-1; AN-152 6.9 μmol/kg, DOX 2.5 μmol/kg iv
Method: as §1, §2

SW-1990 cancers = test: Experiment 2: SW-1990 tumor growth in nude mice; type: in vivo, human (xenograft in nude mice); conditions: for Tumor volume (final): control 3464±838; for Tumor volume (final) / Tumor weights, solid tumor part: AN-152 and DOX P<0.05 vs. control; for Tumor weights, tumors with cysts: control 3729±921, AN-152 P<0.05 vs. control; for Tumor weights, solid tumor part: cut, fluid released, control 2473±636
Method: as §1
All compounds were administered iv.(at 6.9 μmol/kg) once weekly for 7 weeks. There were 10 animals per group. The experiment was terminated 65 days after the first treatment.

SW-1990 tumors [10] = test: Human Apoptosis RT Profiler PCR Array, SW-1990; type: in vivo, human (xenograft in nude mice)
Source text: as §3

Panc-1 cancers [11] = test: Human Cancer Pathway Finder PCR Array, Panc-1 tumors; type: in vivo, human (xenograft in nude mice)
Source text: as §3

[12] = system: advanced pancreatic cancers; conditions: cited from earlier work
Source text: Pancreatic carcinoma is the 9th most common human cancer in the Western world, including the USA, but it is the fourth leading cause of cancer death in both males and females. Its incidence has increased in the white population by about 1% per year between 1999 through 2008. Ductal carcinomas of the pancreas are very aggressive tumors, and because of the concealed location of the gland, they are mostly detected in late stages of development when surgical removal is not useful. Thus, the 5-year survival rate is below 5% and the median survival time after diagnosis is less than 6 mo ...

[13] = system: nitrosamine-induced pancreatic cancers; conditions: hamsters; cited from earlier work
Source text: Receptors for various peptide hormones are present in pancreatic cancers and these receptors can be utilized for both diagnostic and therapeutic purposes.. […] [15, 21] however, their function and importance is still unclear. The combined detection of mRNA for both LH-RH and LH-RH receptor in rat pancreatic cancer lines raised the possibility of an autocrine/paracrine role of LH-RH in these tumors. The findings that both estrogen and androgen receptors are likewise expressed in pancreati ...

[14] = system: binding sites for LH-RH in nitrosamine-induced pancreatic cancers in hamsters; parameters: method as in PMID 15350601; conditions: cited from earlier work
[15] = SW-1990, 6.9 μmol/kg iv once weekly for 7 weeks, 10 animals/group, day 65, means ± SE

## COc1cccc2c1C(=O)c1c(O)c3c(c(O)c1C2=O)C[C@@](O)(C(=O)CO)C[C@@H]3O[C@H]1C[C@H](N)[C@H](O)[C@H](C)O1 [DOX, doxorubicin]
Panc-1 cancers [1]; Panc-1, iv days 1, 8, 15, 22, 33, 61, 8 animals/group, day 82, means ± SE, control 2040±1357, AN-152 P<0.05 vs. control
  Tumor volume (final): 849±363 mm3
Panc-1 cancers [1]; Panc-1 in nude mice, iv
  Growth inhibition (in words): only a moderate but not significant inhibitory effect
CFPAC-1 cancers [2]
  Expression of anti-apoptotic genes: decreased
CFPAC-1 cancers [2]; several genes
  Expression of pro-apoptotic genes: decreased
[3]; all three tumor lines, treated vs control tumors
  Expression of genes related to invasion and metastasis: causing the stronger increases
[3]; three tumor lines
  TIMP3 expression: strongly increased
[3]; three tumor lines, treated vs control tumors
  Expression of genes related to signal transduction molecules and transcription factors: caused considerable increases or decreases in some
[3]; three tumors, Cancer Pathway Finder array
  Expression of apoptosis-associated genes: variable in the three tumors after both treatments
CFPAC-1 cancers [4]; iv days 1, 5, 8, 12, 15 and 30
  Tumor volume (in words): moderate but not significant decrease
CFPAC-1 cancers [4]; iv days 1, 5, 8, 12, 15 and 30, 8 animals/group, day 61, means ± SE, control 2502±769, AN-152 P<0.05 vs. control
  Tumor volume (final): 1063±518 mm3
SW-1990 tumors [5]
  Expression of cell cycle control and DNA damage repair genes: altered in both directions
SW-1990 tumors [5]; treated vs control tumors
  Expression of genes associated with adhesion: changed in both directions
[6]
  Body weights: the lowest in the group receiving DOX, but the differences from control were statistically not significant
  Ovarian weights: reduced
Panc-1 cancers [7]
  Expression of anti-apoptotic genes: mostly increased
Panc-1 cancers [7]; several genes
  Expression of pro-apoptotic genes: increased
CFPAC-1 cancers [8]
  Expression of cell cycle control and DNA damage repair genes: only decreases
CFPAC-1 cancers [8]; treated vs control tumors
  Expression of genes associated with adhesion: decreased
[9]
  Effect on body and organ weights: Neither treatment had an effect on body and organ weights of the mice
SW-1990 cancers; SW-1990, 6.9 μmol/kg iv once weekly for 7 weeks
  Solid tumor weights (in words): reduced
SW-1990 cancers; [15]
  Tumor volume (final): 1213±381a mm3
  Tumor weights, tumors with cysts: 1496 ± 466 mg
  Tumor weights, solid tumor part: 585 ± 141 mg
SW-1990 cancers; SW-1990 in nude mice
  Growth inhibition (in words): inhibitory effect on growth
SW-1990 tumors [10]
  Expression of anti-apoptotic genes: mostly increased
SW-1990 tumors [10]; several genes
  Expression of pro-apoptotic genes: changed in both directions
Panc-1 cancers [11]
  Expression of cell cycle control and DNA damage repair genes: altered in both directions
Panc-1 cancers [11]; treated vs control tumors
  Expression of genes associated with adhesion: decreased

## Nc1ccn([C@@H]2O[C@H](CO)[C@@H](O)C2(F)F)c(=O)n1 [gemcitabine]
[12]; gemcitabine alone or in combination with 5-fluorouracil, radiation or erlotinib, advanced pancreatic cancers
  Clinical efficacy: minimal palliation

## D-Trp^6LH-RH
[13]
  Growth inhibition of nitrosamine-induced pancreatic cancers: inhibits growth
SW-1990 cancers; SW-1990, 6.9 μmol/kg iv once weekly for 7 weeks, 10 animals/group, day 65, means ± SE, control 1.56±0.12, AN-152 P<0.05 vs. all other groups
  Cystic/solid tumor (weight ratio): 1.56±0.11
SW-1990 cancers; [15]
  Tumor volume (final): 2791±646 mm3
  Tumor weights, tumors with cysts: 3107 ± 696 mg
  Tumor weights, solid tumor part: 1862 ± 361 mg

## FOLFIRINOX
[12]; human, in vivo
  Toxicity: highly toxic

## LH-RH: hypothalamic peptide hormone
[14]
  Affinity of binding sites for LH-RH: moderate-affinity

## cetrorelix
[13]
  Growth inhibition of nitrosamine-induced pancreatic cancers: inhibits growth
